# Data: patent publication US20260224557A1, “NRF2 ACTIVATOR” (Ivy Cosmetics Co., Ltd., priority 2023, published 2026)
# System: Nrf2
# Assay: ARE (Antioxidant Response Element)-luciferase reporter assay in ARE-luciferase reporter-stably-expressing HaCaT cell line
# Format: cell-based
# Conditions: HaCaT ARE-luciferase reporter cells, 24 hours
# Experimental: The Nrf2-activating action of conophylline (crystal) which was isolated and purified from Ervatamia microphylla, which is a plant of the Apocynaceae, by the method described in JP4696303B was evaluated by ARE (Antioxidant Response Element)-luciferase reporter assay, which is known as a monitoring system for the Nrf2 antioxidant pathway. Specifically, a plasmid was obtained by inserting a polynucleotide having a sequence in which ARE sequence was repeated twice ([…]: SEQ ID NO: 1) into the multiple cloning site of pNL2.2 [NlucP/Hygro] Vector (Promega Corporation), which is a vector for luciferase reporter assay, and the plasmid was introduced into HaCaT cells (DKFZ) using Cell Line Nucleofector Kit V (Lonza) by electroporation. After 24 hours, by adding hygromycin at a final concentration of 600 μg/mL and selecting drug-resistant cells, an ARE-luciferase reporter-stably-expressing HaCaT cell line having hygromycin resistance was established. […] After 24 hours, the luciferase activities were measured using Nano-Glo Luciferase Assay System (Promega Corporation) according to the protocol, and thus the Nrf2-activating action of conophylline was evaluated.
Structure (SMILES),"luciferase activity (Nrf2-activating action), relative to DMSO control regarded as 1 (conophylline at various final concentrations, FIG. 1)",luciferase activity when Nrf2 inhibitor ML-385 was added together with conophylline (ML-385 20 μM added together with conophylline 1 μg/mL)
CC[C@@]12CC(C(=O)OC)=C3Nc4cc5c(cc4[C@@]34CCN(C[C@H]3O[C@H]31)[C@@H]24)[C@@H]1[C@H](O5)[C@@H](O)[C@@]2(CC)CC(C(=O)OC)=C3Nc4c(cc(O)c(OC)c4OC)[C@@]34CCN1[C@@H]24 [conophylline],enhanced the luciferase activity in a concentration-dependent manner,
Cc1ccccc1C(=O)N1CCc2cc(-c3nc(NC(=O)Cc4ccc5c(c4)OCO5)sc3C)ccc21 [ML-385],,decreased considerably
